Literature values as cited in US10500227B2, “Bioactive gas-encapsulated echogenic liposomes and methods for treating cardiovascular disease” (University of Cincinnati, priority 2014, dated 2019).

Structure (SMILES): [N]=O [NO, nitric oxide]
- diffusivity (in muscular tissue): roughly 3,300 μm^2 per second
- half-life (in the presence of hemoglobin and oxygen in vivo): < 1 s
